In brackets after ≈: the same amount, converted by molar mass. Entries after “also recorded” stand apart in the source; their conditions may differ.
Assays:
[1] = DPPH free radical scavenging assay; type: biochemical; conditions: for DPPH scavenging activity: at 200 μg/mL; for IC50, DPPH free radical scavenging: from linear regression equation, 200 to 0.78125 μg/mL, 1 h in dark
Method: To evaluate the free radical scavenging abilities of isolated phytochemicals on 1, 1-diphenyl-2-picrylhydrazyl, 2.0 mL of methanol solution of the compounds at serially diluted various concentrations (200 μg/mL to 0.78125 μg/mL) were mixed with 3.0 mL of a DPPH methanol solution (20 μg/mL) (DPPH). The mixture was kept in dark for 1 h. The antioxidant properties were assessed by comparing the decolorizing of a purple DPPH methanol solution by the compounds to that of butylated hydroxy anisole (BHA). (1) % Inhibition of free radical DPPH=1−Absorbance ofsample/Absorbance of the control reaction×100

Sarcina lutea = assay: Disc diffusion antibacterial assay; conditions: Micrococcus luteus, read-out: Diameter of Zone of Inhibition
Staphylococcus aureus = assay: Disc diffusion antibacterial assay; conditions: read-out: Diameter of Zone of Inhibition
[2] = Brine shrimp lethality bioassay (cytotoxicity); conditions: in vivo, other: exposure of nauplii in simulated seawater, pH 8, from linear regression, 400–0.78125 μg/mL
Method: The brine shrimp lethality bioassay was conducted to evaluate the cytotoxic potential of the isolated pure compounds. An amount of 38 g of NaCl salt was dissolved in 1000 mL of distilled water to simulate seawater, along with NaOH to keep the pH constant (8.0). Brine shrimp eggs were hatched in artificial seawater to produce nauplii. Isolated compounds were dissolved in DMSO then diluted with simulated seawater into a series of concentrations (400–0.78125 μg/mL). As the reference standard, vincristine sulfate was employed at various doses (400–0.78125 μg/mL), and DMSO served as the negative control. The nauplii were counted visually, and then 5 mL of simulated saltwater was added to vials of the mixture at room temperature. (2) Mortality%=Number of nauplii death/Number of nauplii taken×100

[3] = test system: two Gram-positive and four Gram-negative bacteria; assay: Disc diffusion antibacterial assay, whole panel; type: cell-based; conditions: 100 μg/disc
Escherichia coli = assay: Disc diffusion antibacterial assay; conditions: read-out: Diameter of Zone of Inhibition
Shigella flexneri = assay: microbe, parasite or virus in culture; conditions: read-out: Diameter of Zone of Inhibition
Klebsiella spp. = assay: Disc diffusion antibacterial assay; conditions: read-out: Diameter of Zone of Inhibition
Salmonella typhi = assay: Disc diffusion antibacterial assay; type: cell-based; conditions: Salmonella enterica, read-out: Diameter of Zone of Inhibition

Row | SMILES | DPPH scavenging activity [1] | IC50, DPPH free radical scavenging [1] | zone of inhibition at 100 µg/disc (Sarcina lutea) | zone of inhibition at 100 µg/disc (Staphylococcus aureus) | LC50 [2] | antibacterial spectrum (in words) [3] | zone of inhibition at 100 µg/disc (Escherichia coli) | zone of inhibition at 100 µg/disc (Shigella flexneri) | zone of inhibition at 100 µg/disc (Klebsiella spp.) | zone of inhibition at 100 µg/disc (Salmonella typhi)
1 | Cc1cc(C(C)(C)C)c(O)c(C(C)(C)C)c1 [BHT, Butylated Hydroxytoluene] | 96.48% | 6.06 µg/mL (≈ 27.5 µM) | – | – | – | – | – | – | – | –
2 | Cc1c[nH]c2ccccc12 [Compound 2, 3-methyl-1H-indole] | – | 12.37 µg/mL (≈ 94.3 µM) | 19 mm | 17 mm | 1.02 µg/mL (≈ 7.78 µM) | the most active against Staphylococcus aureus; also recorded: inhibited only Gram-positive bacteria | – | – | – | –
3 | CN(C)[C@@H]1C(O)=C(C(N)=O)C(=O)[C@@]2(O)C(O)=C3C(=O)c4c(O)cccc4[C@@](C)(O)[C@H]3C[C@@H]12 [Tetracycline] | – | – | 38 mm | 37 mm | – | – | 41 mm | 38 mm | 39 mm | 41 mm
4 | CC[C@H](/C=C/[C@@H](C)[C@H]1CC[C@H]2[C@@H]3CC=C4C[C@@H](O)CC[C@]4(C)[C@H]3CC[C@]12C)C(C)C [Compound 4, Stigmasterol] | – | – | 17 mm | 16 mm | 1.92 µg/mL (≈ 4.65 µM) | inhibited only Gram-positive bacteria | – | – | – | –
5 | CN[C@H](CC(C)C)C(=O)N[C@H]1C(=O)N[C@@H](CC(N)=O)C(=O)N[C@H]2C(=O)N[C@H]3C(=O)N[C@H](C(=O)N[C@H](C(=O)O)c4cc(O)cc(O)c4-c4cc3ccc4O)[C@H](O)c3ccc(c(Cl)c3)Oc3cc2cc(c3O[C@@H]2O[C@H](CO)[C@@H](O)[C@H](O)[C@H]2O[C@H]2C[C@](C)(N)[C@H](O)[C@H](C)O2)Oc2ccc(cc2Cl)[C@H]1O [Vancomycin] | – | – | 42 mm | 41 mm | – | – | 42 mm | 38 mm | 43 mm | 39 mm
6 | CC[C@H](CC[C@@H](C)[C@H]1CC[C@H]2[C@@H]3CC=C4C[C@@H](O)CC[C@]4(C)[C@H]3CC[C@]12C)C(C)C [Compound 5, β-sitosterol] | – | – | 15 mm | 17 mm | 1.37 µg/mL (≈ 3.3 µM) | inhibited only Gram-positive bacteria | – | – | – | –
7 | C[C@H]1COc2c(N3CCN(C)CC3)c(F)cc3c(=O)c(C(=O)O)cn1c23 [Levofloxacin] | – | – | 39 mm | 40 mm | – | – | 42 mm | 41 mm | 38 mm | 36 mm
8 | CC[C@H]1OC(=O)[C@H](C)[C@@H](O[C@H]2C[C@@](C)(OC)[C@@H](O)[C@H](C)O2)[C@H](C)[C@@H](O[C@@H]2O[C@H](C)C[C@H](N(C)C)[C@H]2O)[C@](C)(O)C[C@@H](C)CN(C)[C@H](C)[C@@H](O)[C@]1(C)O [Azithromycin] | – | – | 40 mm | 39 mm | – | – | 40 mm | 41 mm | 37 mm | 34 mm
9 | CC[C@]1(O)C[C@H]2CN(CCc3c([nH]c4ccccc34)[C@@](C(=O)OC)(c3cc4c(cc3OC)N(C=O)[C@H]3[C@@](O)(C(=O)OC)[C@H](OC(C)=O)[C@]5(CC)C=CCN6CC[C@]43[C@@H]65)C2)C1 [VS, Vincristine Sulphate] | – | – | – | – | 0.91 µg/mL | – | – | – | – | –
10 | COc1cc(CC(C)CO)ccc1O (stereo not drawn) [Compound 1, 4-(3-hydroxy-2-methylpropyl)-2-methoxyphenol] | 92.96% | 9.97 µg/mL (≈ 50.8 µM) | 20 mm | 21 mm | 1.08 µg/mL (≈ 5.5 µM) | broad-spectrum antibacterial activity | 19 mm | – | – | 18 mm

Reference: publication PMC9503977, “Isolation, Characterization and Pharmacological Investigations of a New Phenolic Compound along with Four Others Firstly Reported Phytochemicals from Glycosmis cyanocarpa (Blume) Spreng” (Molecules, 2022)
